# Patent US6737383B1, “Herbicidal oxadiazolidines” (priority 1999, dated 2004)
# Assays:
# blackgrass = assay: Test B pre/postemergence blackgrass; type: in vivo, Alopecurus myosuroides
# Outline: (§1)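 Herbicidal effect was estimated by eye on a ten-point control scale after plants spent twelve to sixteen days in a greenhouse following soil or foliar treatment. Foliar sprays targeted plants at one to four leaves; all doses were formulated in a non-phytotoxic solvent with surfactant.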
# surinam grass = assay: Test B pre/postemergence surinam grass; type: in vivo, Brachiaria decumbens
# Outline: as §1
# cocklebur = assay: Test B pre/postemergence cocklebur; type: in vivo, Xanthium strumarium; settings: for Cocklebur plant response rating: scale of 0 to 10 where 0 is no effect and 10 is complete control
# Outline: as §1
# corn = assay: Test B pre/postemergence corn; type: in vivo, Zea mays; settings: for Corn plant response rating: scale of 0 to 10 where 0 is no effect and 10 is complete control
# Outline: as §1
# crabgrass = assay: Test B pre/postemergence crabgrass; type: in vivo, Digitaria sanguinalis; settings: for Crabgrass plant response rating: scale of 0 to 10 where 0 is no effect and 10 is complete control
# Outline: as §1
# giant foxtail = assay: Test B pre/postemergence giant foxtail; type: in vivo, Setaria faberii; settings: for Giant foxtail plant response rating: scale of 0 to 10 where 0 is no effect and 10 is complete control
# Outline: as §1
# morningglory = assay: Test B pre/postemergence morningglory; type: in vivo, Ipomoea hederacea; settings: for Morningglory plant response rating: scale of 0 to 10 where 0 is no effect and 10 is complete control
# Outline: as §1
# rape = assay: Test B pre/postemergence rape; type: in vivo, Brassica napus; settings: for Rape plant response rating: scale of 0 to 10 where 0 is no effect and 10 is complete control
# Outline: as §1
# soybean = assay: Test B pre/postemergence soybean; type: in vivo, Glycine max; settings: for Soybean plant response rating: scale of 0 to 10 where 0 is no effect and 10 is complete control
# Outline: as §1
# sugar beet = assay: Test B pre/postemergence sugar beet; type: in vivo, Beta vulgaris; settings: for Sugarbeets plant response rating: scale of 0 to 10 where 0 is no effect and 10 is complete control
# Outline: as §1
# velvetleaf = assay: Test B pre/postemergence velvetleaf; type: in vivo, Abutilon theophrasti; settings: for Velvetleaf plant response rating: scale of 0 to 10 where 0 is no effect and 10 is complete control
# Outline: as §1
# wheat = assay: Test B pre/postemergence wheat; type: in vivo, Triticum aestivum; settings: for Wheat plant response rating: scale of 0 to 10 where 0 is no effect and 10 is complete control
# Outline: as §1
# wild oat = assay: Test B pre/postemergence wild oat; type: in vivo, Avena fatua; settings: for Wild oats plant response rating: scale of 0 to 10 where 0 is no effect and 10 is complete control
# Outline: as §1
# purple nutsedge = assay: Test B pre/postemergence purple nutsedge; type: in vivo, Cyperus rotundus; settings: for Nutsedge plant response rating: scale of 0 to 10 where 0 is no effect and 10 is complete control
# Outline: as §1
# smallflower flatsedge = assay: Test B flood test smallflower flatsedge; type: in vivo, Cyperus difformis
# Outline: (§2)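 Flood test on plants grown to the 2-leaf stage; treated plants kept in greenhouse twelve to sixteen days, then visually rated against controls on a 0 (no effect) to 10 (complete control) scale.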
# duck salad = assay: Test B flood test duck salad; type: in vivo, Heteranthera limosa
# Outline: as §2
# [1] = Postemergence, Rate 125 g/ha, scale 0 to 10, 0 is no effect, 10 is complete control
# [2] = Preemergence, Rate 62 g/ha, scale of 0 to 10 where 0 is no effect and 10 is complete control
# [3] = Preemergence, Rate 250 g/ha, scale of 0 to 10 where 0 is no effect and 10 is complete control
# [4] = Preemergence, Rate 500 g/ha, scale of 0 to 10 where 0 is no effect and 10 is complete control
# [5] = Rate 62 g/ha, Postemergence, scale of 0 to 10 where 0 is no effect and 10 is complete control
# [6] = Rate 250 g/ha, Postemergence, scale of 0 to 10 where 0 is no effect and 10 is complete control
# [7] = Rate 500 g/ha, Postemergence, scale 0 to 10, 0 no effect, 10 complete control
# [8] = Rate 62 g/ha, headed Pre-emergence (flood test species), scale 0 to 10 (0 no effect, 10 complete control)
# [9] = Rate 125 g/ha, Pre-emergence, flood test species, scale 0 to 10 where 0 is no effect and 10 is complete control
# [10] = Rate 250 g/ha, Pre-emergence, flood-test species, scale 0 to 10, 0 is no effect, 10 is complete control
# [11] = Rate 500 g/ha, Pre-emergence, flood test species, scale 0 to 10 (0 no effect, 10 complete control)
compound,measurement,setting,value
CC(C)N(C(=O)n1oc(=O)n(C2CCCCCC2)c1=O)c1ccc(F)cc1 [Compound 340],"Plant response rating, Blackgrass",blackgrass; [1],0
same,Blackgrass plant response rating,blackgrass; [2],0
same,Blackgrass plant response rating (0 to 10 scale),"blackgrass; Preemergence, Rate 125 g/ha",2
same,Blackgrass plant response rating,blackgrass; [3],3
same,Blackgrass plant response rating,blackgrass; [4],8
same,Blackgrass plant response rating,blackgrass; [5],0
same,"Plant response rating, Blackgrass",blackgrass; [6],3
same,"Plant response rating, Blackgrass",blackgrass; [7],8
same,"Plant response rating, B. signalgrass",surinam grass; [1],0
same,B. signalgrass plant response rating,surinam grass; [2],0
same,"B. signalgrass plant response rating (0 to 10 scale, 0 is no effect, 10 is complete control)","surinam grass; Preemergence, Rate 125 g/ha",0
same,B. signalgrass plant response rating,surinam grass; [3],1
same,B. signalgrass plant response rating,surinam grass; [4],2
same,B. signalgrass plant response rating,surinam grass; [5],0
same,"Plant response rating, B. signalgrass",surinam grass; [6],0
same,"Plant response rating, B. signalgrass",surinam grass; [7],0
same,"Plant response rating, Cocklebur",cocklebur; [1],0
same,Cocklebur plant response rating,"cocklebur; Preemergence, Rate 62 g/ha",0
same,Cocklebur plant response rating (0 to 10 scale),"cocklebur; Preemergence, Rate 125 g/ha",0
same,Cocklebur plant response rating,"cocklebur; Preemergence, Rate 250 g/ha",0
same,Cocklebur plant response rating,"cocklebur; Preemergence, Rate 500 g/ha",0
same,Cocklebur plant response rating,"cocklebur; Rate 62 g/ha, Postemergence",0
same,"Plant response rating, Cocklebur",cocklebur; [7],0
same,"Plant response rating, Corn",corn; [1],0
same,Corn plant response rating,"corn; Preemergence, Rate 62 g/ha",0
same,Corn plant response rating (0 to 10 scale),"corn; Preemergence, Rate 125 g/ha",0
same,Corn plant response rating,"corn; Preemergence, Rate 250 g/ha",0
same,Corn plant response rating,"corn; Preemergence, Rate 500 g/ha",0
same,Corn plant response rating,"corn; Rate 62 g/ha, Postemergence",0
same,"Plant response rating, Corn",corn; [7],0
same,"Plant response rating, Crabgrass",crabgrass; [1],0
same,Crabgrass plant response rating,"crabgrass; Preemergence, Rate 62 g/ha",0
same,Crabgrass plant response rating (0 to 10 scale),"crabgrass; Preemergence, Rate 125 g/ha",3
same,Crabgrass plant response rating,"crabgrass; Preemergence, Rate 250 g/ha",8
same,Crabgrass plant response rating,"crabgrass; Preemergence, Rate 500 g/ha",9
same,Crabgrass plant response rating,"crabgrass; Rate 62 g/ha, Postemergence",0
same,"Plant response rating, Crabgrass",crabgrass; [7],2
same,"Plant response rating, Giant foxtail",giant foxtail; [1],0
same,Giant foxtail plant response rating,"giant foxtail; Preemergence, Rate 62 g/ha",8
same,Giant foxtail plant response rating (0 to 10 scale),"giant foxtail; Preemergence, Rate 125 g/ha",10
same,Giant foxtail plant response rating,"giant foxtail; Preemergence, Rate 250 g/ha",10
same,Giant foxtail plant response rating,"giant foxtail; Preemergence, Rate 500 g/ha",10
same,Giant foxtail plant response rating,"giant foxtail; Rate 62 g/ha, Postemergence",0
same,"Plant response rating, Giant foxtail",giant foxtail; [7],6
same,"Plant response rating, Morningglory",morningglory; [1],7
same,Morningglory plant response rating,"morningglory; Preemergence, Rate 62 g/ha",0
same,Morningglory plant response rating (0 to 10 scale),"morningglory; Preemergence, Rate 125 g/ha",0
same,Morningglory plant response rating,"morningglory; Preemergence, Rate 250 g/ha",0
same,Morningglory plant response rating,"morningglory; Preemergence, Rate 500 g/ha",0
same,Morningglory plant response rating,"morningglory; Rate 62 g/ha, Postemergence",2
same,"Plant response rating, Morningglory",morningglory; [7],10
same,"Plant response rating, Rape",rape; [1],2
same,Rape plant response rating,"rape; Preemergence, Rate 62 g/ha",0
same,Rape plant response rating (0 to 10 scale),"rape; Preemergence, Rate 125 g/ha",0
same,Rape plant response rating,"rape; Preemergence, Rate 250 g/ha",0
same,Rape plant response rating,"rape; Preemergence, Rate 500 g/ha",0
same,Rape plant response rating,"rape; Rate 62 g/ha, Postemergence",2
same,"Plant response rating, Rape",rape; [7],6
same,"Plant response rating, Soybean",soybean; [1],2
same,Soybean plant response rating,"soybean; Preemergence, Rate 62 g/ha",0
same,Soybean plant response rating (0 to 10 scale),"soybean; Preemergence, Rate 125 g/ha",0
same,Soybean plant response rating,"soybean; Preemergence, Rate 250 g/ha",0
same,Soybean plant response rating,"soybean; Preemergence, Rate 500 g/ha",0
same,Soybean plant response rating,"soybean; Rate 62 g/ha, Postemergence",1
same,"Plant response rating, Soybean",soybean; [7],3
same,"Plant response rating, Sugarbeets",sugar beet; [1],2
same,Sugarbeets plant response rating,"sugar beet; Preemergence, Rate 62 g/ha",0
same,Sugarbeets plant response rating (0 to 10 scale),"sugar beet; Preemergence, Rate 125 g/ha",0
same,Sugarbeets plant response rating,"sugar beet; Preemergence, Rate 250 g/ha",0
same,Sugarbeets plant response rating,"sugar beet; Preemergence, Rate 500 g/ha",0
same,Sugarbeets plant response rating,"sugar beet; Rate 62 g/ha, Postemergence",0
same,"Plant response rating, Sugarbeets",sugar beet; [7],6
same,"Plant response rating, Velvetleaf",velvetleaf; [1],0
same,Velvetleaf plant response rating,"velvetleaf; Preemergence, Rate 62 g/ha",0
same,Velvetleaf plant response rating (0 to 10 scale),"velvetleaf; Preemergence, Rate 125 g/ha",0
same,Velvetleaf plant response rating,"velvetleaf; Preemergence, Rate 250 g/ha",0
same,Velvetleaf plant response rating,"velvetleaf; Preemergence, Rate 500 g/ha",2
same,Velvetleaf plant response rating,"velvetleaf; Rate 62 g/ha, Postemergence",0
same,"Plant response rating, Velvetleaf",velvetleaf; [7],3
same,"Plant response rating, Wheat",wheat; [1],0
same,Wheat plant response rating,"wheat; Preemergence, Rate 62 g/ha",0
same,Wheat plant response rating (0 to 10 scale),"wheat; Preemergence, Rate 125 g/ha",0
same,Wheat plant response rating,"wheat; Preemergence, Rate 250 g/ha",0
same,Wheat plant response rating,"wheat; Preemergence, Rate 500 g/ha",0
same,Wheat plant response rating,"wheat; Rate 62 g/ha, Postemergence",0
same,"Plant response rating, Wheat",wheat; [7],0
same,"Plant response rating, Wild oats",wild oat; [1],0
same,Wild oats plant response rating,"wild oat; Preemergence, Rate 62 g/ha",0
same,Wild oats plant response rating (0 to 10 scale),"wild oat; Preemergence, Rate 125 g/ha",0
same,Wild oats plant response rating,"wild oat; Preemergence, Rate 250 g/ha",2
same,Wild oats plant response rating,"wild oat; Preemergence, Rate 500 g/ha",3
same,Wild oats plant response rating,"wild oat; Rate 62 g/ha, Postemergence",0
same,"Plant response rating, Wild oats",wild oat; [7],0
same,"Plant response rating, Nutsedge",purple nutsedge; [1],0
same,Nutsedge plant response rating,"purple nutsedge; Preemergence, Rate 62 g/ha",0
same,Nutsedge plant response rating (0 to 10 scale),"purple nutsedge; Preemergence, Rate 125 g/ha",0
same,Nutsedge plant response rating,"purple nutsedge; Preemergence, Rate 250 g/ha",0
same,Nutsedge plant response rating,"purple nutsedge; Preemergence, Rate 500 g/ha",0
same,Nutsedge plant response rating,"purple nutsedge; Rate 62 g/ha, Postemergence",0
same,"Plant response rating, Nutsedge",purple nutsedge; [7],0
same,S. Flatsedge plant response rating,smallflower flatsedge; [8],0
same,S. Flatsedge plant response rating,smallflower flatsedge; [9],0
same,S. Flatsedge plant response rating,smallflower flatsedge; [10],2
same,S. Flatsedge plant response rating,smallflower flatsedge; [11],9
same,Ducksalad plant response rating,duck salad; [8],0
same,Ducksalad plant response rating,duck salad; [9],0
same,Ducksalad plant response rating,duck salad; [10],0
same,Ducksalad plant response rating,duck salad; [11],5
